This is an account of results in ChEMBL document CHEMBL5506003, “Design and biological evaluation of dual tubulin/HDAC inhibitors based on millepachine for treatment of prostate cancer” (Eur J Med Chem, 2024).

One test concerns PC-3. Kind of test: Cytotoxicity against human PC-3 cells incubated for 72 hrs by MTT assay. The note with it: PC-3, 72 h. On the technique in general: Formazan colour is commonly taken as a measure of viable cells.
The test system of another test is MCF7. Kind of test: Cytotoxicity against human MCF7 cells incubated for 72 hrs by MTT assay. The following applies: MCF7, 72 h.
The test system of another test is MDA-MB-231. Description: Cytotoxicity against human MDA-MB-231 cells incubated for 72 hrs by MTT assay. Type of test: functional, cell-based. The note with it: MDA-MB-231, 72 h.
In the next test the test system is A549. Description: Cytotoxicity against human A549 cells incubated for 72 hrs by MTT assay. The following applies: A549, 72 h.
The test system of the next test is U-251. Kind of test: Cytotoxicity against human U-251 cells incubated for 72 hrs by MTT assay. The following applies: U-251, 72 h.

By IC50 is commonly meant the concentration at which inhibition is half-maximal. On to `COc1ccc(/C=C/C(=O)c2ccc(OC)c3c2OC(C)(C)C=C3)cc1OCCCC(=O)Nc1ccccc1N`, for which the 50% inhibitory concentration (IC50) with PC-3 was more than 10 µM; with MCF7 it was 9.47 µM; in the test on MDA-MB-231, more than 10 µM; in the test on A549, more than 10 µM; with U-251, 7.52 µM.

Regarding `COc1ccc(/C=C/C(=O)c2ccc(OC)c3c2OC(C)(C)C=C3)cc1` [MILLEPACHINE], the IC50 in the test on PC-3 was 1.13 µM; in the test with MCF7, 4.37 µM; with MDA-MB-231, 2.47 µM; with A549, more than 10 µM; with U-251 it was 3.72 µM.

In the case of `COc1ccc(/C=C/C(=O)c2ccc(OC)c3c2OC(C)(C)C=C3)cc1OCCCCCC(=O)Nc1ccccc1N`, the half-inhibitory concentration (IC50) in the test on PC-3 was 5.86 µM; in the test with MCF7 it was more than 10 µM; in the test with MDA-MB-231 it was more than 10 µM; with A549 it was more than 10 µM; in the test with U-251 it was more than 10 µM.

Take `COc1ccc(/C=C/C(=O)c2ccc(OC)c3c2OC(C)(C)C=C3)cc1NCCCCCCC(=O)NO`: the IC50 in the test on PC-3 was 7.23 µM; in the test on MCF7, more than 10 µM; with MDA-MB-231, more than 10 µM; in the test with A549 it was more than 10 µM; in the test on U-251 it was more than 10 µM.

Regarding `COc1ccc(/C=C/C(=O)c2ccc(Br)c3c2OC(C)(C)C=C3)cc1NCC(=O)Nc1ccccc1N`, the IC50 with PC-3 is 1.23 µM; with MCF7, 4.06 µM; with MDA-MB-231, 4.05 µM; in the test with A549 it was more than 10 µM; in the test on U-251 it was 3.66 µM.

In the case of `COc1ccc(/C=C/C(=O)c2ccc(Cl)c3c2OC(C)(C)C=C3)cc1NCC(=O)Nc1ccccc1N`, the IC50 with PC-3 was 2.65 µM; in the test with MCF7 it was 4.77 µM; with MDA-MB-231, 3 µM; in the test with A549, more than 10 µM; in the test on U-251 it was 4.72 µM.

For `COc1ccc(/C=C/C(=O)c2ccc(Cl)c3c2OC(C)(C)C=C3)cc1OCC(=O)Nc1ccccc1N`, the 50% inhibitory concentration (IC50) was found to be 4.69 µM in the test with PC-3; 9.14 µM in the test with MCF7; 3.45 µM in the test with MDA-MB-231; 7.72 µM with A549; 9.23 µM in the test on U-251.

Take `COc1ccc(/C=C/C(=O)c2ccc(OC)c3c2OC(C)(C)C=C3)cc1OCC(=O)NO`: the half-maximal inhibitory concentration (IC50) stood at 0.23 µM with PC-3; 0.59 µM in the test with MCF7; 1.71 µM with MDA-MB-231; 2.93 µM with A549; 0.48 µM with U-251.

Turning to `COc1ccc(/C=C/C(=O)c2ccc(OC)c3c2OC(C)(C)C=C3)cc1NCCCCCC(=O)NO`, the IC50 in the test on PC-3, in the test on MCF7, with MDA-MB-231, in the test on A549 and in the test with U-251 was more than 10 µM each time.

With `COc1ccc(/C=C/C(=O)c2ccc(OC)c3c2OC(C)(C)C=C3)cc1NCCCCCC(=O)Nc1ccccc1N`, the IC50 was 5.16 µM in the test with PC-3; more than 10 µM in the test on MCF7; more than 10 µM in the test with MDA-MB-231; more than 10 µM in the test on A549; more than 10 µM in the test with U-251.

Turning to `COc1ccc(/C=C/C(=O)c2ccc(Cl)c3c2OC(C)(C)C=C3)cc1NCC(=O)NO`, the IC50 came out at 0.052 µM in the test with PC-3; 0.48 µM with MCF7; 0.5 µM with MDA-MB-231; 1.67 µM in the test on A549; 0.25 µM in the test with U-251.

For `COc1ccc(/C=C/C(=O)c2ccc(OC)c3c2OC(C)(C)C=C3)cc1OCCCC(=O)NO`, the 50% inhibitory concentration (IC50) with PC-3 is 6.15 µM; in the test on MCF7, 5.68 µM; with MDA-MB-231 it was 8.71 µM; in the test with A549 it was 5.53 µM; in the test with U-251, 3.68 µM.

With `COc1ccc(/C=C/C(=O)c2ccc(Br)c3c2OC(C)(C)C=C3)cc1OCC(=O)Nc1ccccc1N`, the IC50 was 3.75 µM in the test with PC-3; 6.11 µM in the test with MCF7; 4.75 µM in the test on MDA-MB-231; 8.2 µM in the test on A549; 6.68 µM in the test with U-251.

Regarding `COc1ccc(/C=C/C(=O)c2ccc(OC)c3c2OC(C)(C)C=C3)cc1OCCCCC(=O)Nc1ccccc1N`, the IC50 was 6.44 µM in the test on PC-3; 8.49 µM in the test with MCF7; more than 10 µM with MDA-MB-231; more than 10 µM in the test with A549; more than 10 µM in the test with U-251.

For the molecule `COc1ccc(/C=C/C(=O)c2ccc(OC)c3c2OC(C)(C)C=C3)cc1OCCCCCCC(=O)NO`, the IC50 was more than 10 µM in the test with PC-3; 10 µM with MCF7; more than 10 µM in the test with MDA-MB-231; more than 10 µM with A549; more than 10 µM in the test on U-251.

Regarding `COc1ccc(/C=C/C(=O)c2ccc(OC)c3c2OC(C)(C)C=C3)cc1OCCCCCC(=O)NO`, the IC50 is 5.74 µM in the test on PC-3; 6.53 µM with MCF7; more than 10 µM in the test on MDA-MB-231; 6.08 µM in the test with A549; more than 10 µM in the test with U-251.

For `COc1ccc(/C=C/C(=O)c2ccc(OC)c3c2OC(C)(C)C=C3)cc1OCC(=O)Nc1ccccc1N`, the IC50 was more than 10 µM in the test on PC-3; 8.72 µM with MCF7; more than 10 µM in the test with MDA-MB-231; more than 10 µM in the test on A549; 7.6 µM with U-251.

In the case of `COc1ccc(/C=C/C(=O)c2ccc(Cl)c3c2OC(C)(C)C=C3)cc1OCC(=O)NO`, the IC50 is 0.22 µM in the test on PC-3; 1.45 µM with MCF7; 0.5 µM with MDA-MB-231; 2.56 µM in the test on A549; 1.76 µM in the test on U-251.

As for `COc1ccc(/C=C/C(=O)c2ccc(OC)c3c2OC(C)(C)C=C3)cc1OCCCCCCC(=O)Nc1ccccc1N`, the IC50 in the test on PC-3 was more than 10 µM; in the test with MCF7, more than 10 µM; with MDA-MB-231 it was 3.89 µM; with A549, more than 10 µM; with U-251, more than 10 µM.

`COc1ccc(/C=C/C(=O)c2ccc(OC)c3c2OC(C)(C)C=C3)cc1NCC(=O)Nc1ccccc1N`: the IC50 with PC-3 came out at 3.1 µM; in the test with MCF7, 4.33 µM; in the test with MDA-MB-231, 4.97 µM; in the test on A549, 9.78 µM; with U-251 it was 4.19 µM.

With `COc1ccc(/C=C/C(=O)c2ccc(OC)c3c2OC(C)(C)C=C3)cc1NCCCCCCC(=O)Nc1ccccc1N`, the half-maximal inhibitory concentration (IC50) is 6.61 µM in the test with PC-3; more than 10 µM in the test with MCF7; more than 10 µM with MDA-MB-231; more than 10 µM in the test with A549; more than 10 µM in the test with U-251.

Take `COc1ccc(/C=C/C(=O)c2ccc(OC)c3c2OC(C)(C)C=C3)cc1OCCCCC(=O)NO`: the IC50 in the test on PC-3 is 4.84 µM; with MCF7 it was more than 10 µM; with MDA-MB-231, 4.69 µM; in the test with A549, 7.13 µM; with U-251, more than 10 µM.
